From patent publication EP3431468B1, “USE OF ADIPONECTIN RECEPTOR AGONISTS IN TREATING DEPRESSION, ANXIETY AND NEUROINFLAMMATION” (CENTRE NATIONAL DE LA RECHERCHE SCIENTIFIQUE, priority 2017, dated 2019)

How the values were obtained:
[1] = system: corticosterone-treated mice; test: Novelty Suppressed Feeding (NSF), chronic administration; type: in vivo; conditions: chronic 1mg/kg ip daily
Experimental: Three well-established mouse models of depression-like behavior have been used in the present study namely i- the long-term corticosterone treatment in the drinking water (David, Samuels et al. 2009), ii- the peripheral administration of LPS (O'Connor, Lawson et al. 2009) iii- the ApN^-/- mice (Liu, Guo et al. 2012). For chronic AdipoRon treatment, the experimental protocol was as followed: • i- Five weeks old male mice (five/cage) received corticosterone (35mg/L dissolved in tap water containing 4 g/L CD) or vehicle alone ad libitum for during 7 consecutive weeks (David, Samuels et al. 2009). Corticosterone and vehicle solutions were changed every 3 days to prevent possible degradation. […]
All behavioral testing were conducted during the light phase (between 09:00 and 14:00 am) in compliance with the Institutional Animal Care and Use Committee of the University of Nice-Sophia Antipolis (permission number 010344.01 from the French "Ministère de l'Enseignement Supérieur et de la Recherche" granted to Dr. Joëlle Chabry). • Forced Swimming test (FST) - Mice were placed an inescapable transparent tank (20cm diameter, 30cm deep) filled with water (23°C ± 0.5) for six minutes as previously described by Porsolt et al. (1977). […] To initiate testing, mice were placed into the light side and activity was recorded for 5 minutes. […]

[2] = system: pro-inflammatory cytokines (IL1β, IL6, TNFα, IFNγ); test: Pro-inflammatory cytokines measurement in brain areas (ECL-based assay); type: in vivo; conditions: corticosterone-treated mice, chronic AdipoRon
Experimental: Data were digitized at 5-10 kHz using a Digidata interface coupled to a microcomputer running pClamp 9 (Axon Instruments, USA). Current-clamp data were digitized at 0.5 kHz using the same interface. Potentials were digitally filtered at 1-3 kHz. Average data were expressed as mean ± SEM, n = number of neurons, N = number of mice. • Western blot analysis - Total proteins were extracted from mouse hypothalamus by homogenization in lysis buffer (50mM Tris-HCl, pH7.5, 150mM NaCl, 5mM EDTA containing 0.5% Triton X-100 and 0.5% sodium deoxycholate with a coktail of protease and phosphatase inhibitors). Equal amounts of total proteins (50µg) determined by the Bradford method (BioRad) were separated onto 12% SDS-PAGE, then transferred on nitrocellulose membrane (Schleicher & Schuell, Dassel, Germany). Blots were incubated in PBS 0.1% Tween, 2% BSA with antibodies directed against phospho-AMPKα (Thr172), total AMPK (Cell Signaling), and then with the appropriate HRP-secondary antibody. […] IFNγ, IL1β, IL6, and TNFα, levels were measured using an electro-chemo-luminescence (ECL)-based assay (U-plex, MesoScaleDiscovery) following manufacturer instructions. Results were standardized according to the protein concentration of each sample determined by the Bradford method. • Kynurenine pathway metabolites measurement - Plasma levels of L-kynurenin (L-Kyn), tryptophan (Trp), kynurenin acid (Kyn ac), 5-HT and 5-HIAA were determined as follows: 25µl of plasma was deproteinated with 150µl of cold MeOH. […] Determination of L-Kyn, Trp, Kyn ac, 5-HT and 5-HIAA levels, done in triplicate, were determined by liquid chromatography coupled to MS-MS analysis as previously described with minor modifications (Fuertig, Ceci et al. 2016). • Statistical Analysis - Statistical analyses were performed using GraphPad Prism 4.0 software. Biological parameters and q-PCR data were analyzed using a one-way (treatment) or two-way (pretreatment X treatment) analysis of variance, followed by a post-hoc multiple comparison procedure using the Dunnett's method. […]

O=C(COc1ccc(C(=O)c2ccccc2)cc1)NC1CCN(Cc2ccccc2)CC1 [AdipoRon, 2-(4-Benzoylphenoxy)-N-[1-(phenylmethyl)-4-piperidinyl]-acetamide]
latency to eat in the NSF ([1]; corticosterone-treated mice): reversed the effect of corticosterone | latency to eat in the NSF ([1]; vehicle-treated mice (no corticosterone)): no significant effect | corticosterone-induced cytokines differences (IFNγ) ([2]; hippocampus): abolished | corticosterone-induced cytokines differences (IL1β, TNFα, IFNγ) ([2]; hypothalamus): abolished | corticosterone-induced cytokines differences (IL1β, IL6, TNFα) ([2]; prefrontal cortex): abolished
